The experiment concerns S. Typhi PhoP-promoter GFP reporter, fluorescence, 4 h. Put plainly: modified counter assay using GFP fluorescence, PhoP regulon inhibitor project, dose response (AID 1985).

Values joined by “and” are separate entries in the source; they are usually repeats but may differ in a detail not shown here. Identical values can stand only once.

The IC50 is the point on the concentration scale where inhibition reaches its midpoint. For the compound `Nc1ncn([C@@H]2O[C@H](CO)[C@@H](O)[C@H]2O)c(=O)n1`, the IC50 is 11.2 µM.
For `C#CCOCCOCCOCCNc1nc(N2CCN(C(=O)CCCCCCCCCCNC(=O)[C@@H](CCSC)n3cc(CCO)nn3)CC2)nc(N2CCN(C(=O)CCCCCCCCCCNC(=O)[C@H]([C@@H](C)CC)n3cc(CCCCCN)nn3)CC2)n1`, the half-inhibitory concentration (IC50) was 110 µM.
Under `C(=N/Nc1nccs1)/c1cccnc1` stands 61.5 µM; under `O=C1C(Cl)=C(NCc2cccnc2)C(=O)c2ccccc21`, 41.6 µM.
On to `N=c1n(CC(=O)c2ccc(Br)s2)c2ccccc2n1Cc1ccccc1`, for which the IC50 is 47.2 µM.
The value for `COc1cc([N+](=O)[O-])cc(/C=N/NC(=O)c2cccnc2)c1O` was 66.7 µM; that for `O=c1c2ccccc2[nH]c2ccccc12` was 27.2 µM.
On to `O=C(CNC(=O)c1ccccc1)N/N=C/c1ccc([N+](=O)[O-])s1`, for which the IC50 was 19.5 µM.
As for `Cc1ccc(NC(=O)c2ccccc2)s1`, the IC50 was 91.9 µM.
Consider `Cc1ccc(NC(=S)Nc2ccc(S(=O)(=O)Nc3ncccn3)cc2)cc1Cl`, for which the half-inhibitory concentration (IC50) is 101 µM.
For the compound `C#CCOCCOCCOCCNc1nc(N2CCN(C(=O)[C@H](Cc3ccc(O)cc3)n3cc([C@@H](N)CC(C)C)nn3)CC2)nc(N2CCN(C(=O)[C@H](Cc3cc4ccccc4[nH]3)n3cc([C@@H](N)CC(C)C)nn3)CC2)n1`, the IC50 is 85.1 µM.
Consider `COc1cc(/C=C/[N+](=O)[O-])ccc1O`, for which the half-inhibitory concentration (IC50) was 53.4 µM.
Regarding `Nc1nonc1C(=O)N/N=C/c1cc(Br)ccc1O`, the IC50 was 12.7 µM.
In the case of `CC(C)[C@@H]1CC[C@@H](C)C[C@H]1OC(=O)C[n+]1cc(-c2ccc(Cl)cc2)n2c1CCCCC2`, the IC50 is 142 µM.
Regarding `COc1cc([N+](=O)[O-])cc(/C=N/NC(=O)C(C)Nc2cccc(C)c2)c1O` (stereo not drawn), the IC50 is 71.6 µM.
On to `CNC(=S)N1CCN(c2c(F)cc3c(=O)c(C(=O)O)cn(C4CC4)c3c2OC)CC1C` (stereo not drawn), for which the IC50 is 8.49 µM.
In the case of `CCCCCCCCCCOC(=O)Cn1c(COc2ccccc2OC)[n+](C)c2ccccc21`, the IC50 was 25.4 µM.
With `CCCCCCCC(=O)N/N=C/c1ccc([N+](=O)[O-])o1`, the half-maximal inhibitory concentration (IC50) is 30.2 µM.
In the case of `Cc1cc(C)n(-c2nc(NCCN(C)C)c3c4c(sc3n2)CCCC4)n1`, the IC50 is 99.4 µM.
Consider `CCCCCCCCCCC[N+](C)(C)CC/C=C1/c2ccccc2Sc2ccc(Cl)cc21`, for which the IC50 was 31.4 µM.
Turning to `O=C1C=CC(=O)N1CCCCCCN1C(=O)C=CC1=O`, the IC50 was 112 µM.
Take `CC[C@H]1OC(=O)C[C@@H](O)[C@H](C)[C@@H](O[C@@H]2O[C@H](C)C[C@H](N(C)C)[C@H]2O)[C@@H](CC=O)C[C@@H](C)C(=O)C=C[C@]2(C)O[C@H]2[C@@H]1C`: the concentration for half-maximal inhibition (IC50) is 9.29 µM.
Turning to `CCN1CCN(Cc2ccc(NC(=O)c3cc(NC(=O)c4cc(-c5ccc(OC)cc5)n[nH]4)cc(OC)c3)cc2C(F)(F)F)CC1`, the 50% inhibitory concentration (IC50) was 102 µM.
The value for `O=C(Cn1cc[n+](CC(=O)c2ccc(Cl)cc2Cl)c1)c1ccc(Cl)cc1Cl` was 37.2 µM.
In the case of `COC12C(COC(N)=O)C3=C(C(=O)C(C)=C(N)C3=O)N1CC1C2N1C` (stereo not drawn), the IC50 was 31.2 µM.
For the compound `CCN1CCN(C(=O)c2cc3cc(F)ccc3[nH]2)CC1`, the IC50 is 97.5 µM.
For the compound `COc1ccc2nc(NC(=O)C3CC(=O)N(c4ccccc4)C3)sc2c1` (stereo not drawn), the IC50 was 107 µM.
The value for `O=C(N/N=C/c1cc(Cl)ccc1O)c1cccnc1` was 28.2 µM.
Regarding `COc1c(N2CCN(C(=S)Nc3ccc(F)cc3)C(C)C2)c(F)cc2c(=O)c(C(=O)O)cn(C3CC3)c12` (stereo not drawn), the IC50 was 0.581 µM.
The value for `CN(C)CCCNC(=S)NCC(c1ccc(Cl)cc1Cl)c1c[nH]c2ccccc12` (stereo not drawn) was 36.5 µM; that for `CC(=O)NC(c1cccs1)c1cc([N+](=O)[O-])c2cccnc2c1O` (stereo not drawn) was 31.3 µM.
As for `Oc1[nH]c2ccc(Br)cc2c1N=NC(=S)N1CCOCC1`, the concentration for half-maximal inhibition (IC50) is 47.3 µM.
The value for `O=C(OCC(=O)N1CCOCC1)c1ccc[nH]c1=O` was 10.6 µM; that for `O=C(Nc1cccc(Cl)c1)Nc1nccs1` was 55.3 µM.
As for `CCn1cc(C(=O)NCCCN(C)C)c(=O)c2cc(F)c(N3CCN(C)CC3)cc21`, the IC50 is 35.5 µM.
Consider `c1cnc2c(c1)ccc1cccnc12`, for which the IC50 was 33.7 µM and 131 µM.
As for `COc1cccc(F)c1C(C[N+](=O)[O-])c1c(N)n(C)c(=O)n(C)c1=O` (stereo not drawn), the IC50 is 142 µM.
As for `COC(=O)C1C(O)C(C)C(O)C(C)(O)/C=C\C=C(/C)C(=O)Nc2c(C)c(OC(C)=O)c3c(c2O)C(=O)C(C)=C2OCOC(=C23)/C(C)=C/C(C)(O)C(O)C(C)C1O` (stereo not drawn), the concentration for half-maximal inhibition (IC50) was 33.1 µM.
In the case of `CCN(CC)c1ccc(/C=N/NC(=O)c2ccc3nc[nH]c3c2)c(O)c1`, the 50% inhibitory concentration (IC50) is 46.6 µM.
As for `O=C(Nc1nc(-c2ccccn2)cs1)c1ccc(Cl)s1`, the IC50 is 21.5 µM.
The value for `O=C(Oc1c(Cl)cc(Cl)c2cccnc12)c1cccc([N+](=O)[O-])c1` was 5.09 µM.
For the compound `O=C(NC(C(=O)c1ccccc1)n1c(=O)cc[nH]c1=S)c1ccccc1` (stereo not drawn), the IC50 is 120 µM.
On to `Oc1ccc(Cl)cc1Cc1cc(Cl)ccc1O`, for which the 50% inhibitory concentration (IC50) was 36 µM.
Under `Oc1cc(Cl)ccc1Oc1ccc(Cl)cc1Cl` stands 0.369 µM.
In the case of `O=C(CN1CC(c2ccccc2)CC1=O)N/N=C/c1cc(Br)ccc1O` (stereo not drawn), the half-inhibitory concentration (IC50) is 46.4 µM.
With `CCCCc1c(O)nc(SCC(=O)Nc2ccc3c(c2)CCC3)[nH]c1=O`, the half-inhibitory concentration (IC50) is 30.6 µM.
With `Cc1ccc(S(=O)(=O)CCC(=O)c2ccc(O)cc2O)cc1`, the IC50 is 69.1 µM.
For the compound `O=c1[nH]cc(N=Cc2cc([N+](=O)[O-])ccc2O)c(=O)[nH]1`, the IC50 was 39.7 µM.
`CCCOc1ccc(C(=O)NNC(=S)NC(C)=O)cc1`: the IC50 was 52.3 µM.
Under `O=C(CSc1ccccn1)N/N=C/c1cc([N+](=O)[O-])ccc1O` stands 35.6 µM.
For the compound `Cc1ccc(OCC(O)Cn2c(=N)n(CCN3CCCCC3)c3ccccc32)cc1` (stereo not drawn), the IC50 is 67.9 µM.
As to `Cc1cc(N=Nc2ccc(C)c(N=Nc3cc(C)c(N)cc3N)c2)c(N)cc1N`, the concentration for half-maximal inhibition (IC50) is 108 µM.
For the compound `CCOC(=O)N1CCN(C(=O)c2cn(CC)c3cc(N4CCN(C)CC4)c(F)cc3c2=O)CC1`, the IC50 is 7.67 µM.
In the case of `CO[C@@]1(NC(=O)Cc2cccs2)C(=O)N2C(C(=O)O)=C(COC(N)=O)CS[C@@H]21`, the IC50 was 40.5 µM.
`CO[C@@]1(NC(=O)C2SC(=C(C(N)=O)C(=O)O)S2)C(=O)N2C(C(=O)O)=C(CSc3nnnn3C)CS[C@@H]21` (stereo partly drawn): the IC50 is 13.1 µM.
The value for `Nc1nnc(-c2cccc(Cl)c2Cl)c(N)n1` was 33 µM; that for `C#CCOCCOCCOCCNc1nc(N2CCN(C(=O)CCCCCCCCCCNC(=O)[C@H](CO)n3cc(CCCCCN)nn3)CC2)nc(N2CCN(C(=O)CCCCCCCCCCNC(=O)[C@H](CCCN=C(N)N)n3cc(C[C@@H](C)CC)nn3)CC2)n1` was 142 µM.
Take `CCCCCCCCCCOC(=O)Cn1c(COc2ccc(Cl)cc2)[n+](C)c2ccccc21`: the IC50 is 15.7 µM.
The value for `CCN(CC)c1ccc(CNc2nc3ccccc3n2C)cc1` was 97.3 µM; that for `COc1cc(CNCCc2ccccc2)cc(Cl)c1OCc1ccccc1` was 78.9 µM.
Turning to `Clc1ccc2[nH]c3c(c2c1)CCc1cn[nH]c1-3`, the half-inhibitory concentration (IC50) is 74.8 µM.
As to `Oc1ccc(COCc2ccccc2)c2cccnc12`, the IC50 was 47.8 µM.
Under `CCn1cc(C(=O)O)c(=O)c2cc(F)c(N3CCN(S(=O)(=O)c4ccc(NC(C)=O)cc4)CC3)cc21` stands 86.6 µM; under `O=C(C[n+]1cc(-c2ccc(Cl)cc2)n2c1CCC2)Nc1nc(-c2ccccc2)cs1`, 36.7 µM.
Turning to `CCCCCCOC(=O)C[N+](C)(C)CCOC1CC2CCC1(C)C2(C)C` (stereo not drawn), the half-inhibitory concentration (IC50) was 48 µM.
For the compound `O=[N+]([O-])c1cccc2c(N3CCCC3)ccnc12`, the IC50 is 17.6 µM.
Under `Fc1ccc(Nc2nc(NCc3ccco3)c3ccccc3n2)cc1` stands 15.1 µM; under `Cc1ccc2nc(N(CCCN(C)C)C(=O)c3sc4ccccc4c3Cl)sc2c1`, 54.7 µM.
On to `NC1=NC[C@@H](Cc2ccc(O)cc2)N1CCCCC1CCCCC1`, for which the concentration for half-maximal inhibition (IC50) was 32.5 µM.
`c1ccc2oc(-c3csc(NCC4CCCO4)n3)cc2c1` (stereo not drawn): the IC50 was 142 µM.
Consider `CCc1nccc2c1[nH]c1ccccc12`, for which the IC50 is 123 µM.
`O=C(CSc1nc2ccccc2s1)N/N=C/c1cc([N+](=O)[O-])ccc1O`: the IC50 is 44 µM.
On to `O=C(C[n+]1cnn(CC(=O)c2ccc(Cl)cc2Cl)c1)c1ccc([N+](=O)[O-])cc1`, for which the concentration for half-maximal inhibition (IC50) was 42.8 µM.
Under `Cc1cccc(C(=O)NNC(=S)NC(=O)c2cccs2)c1` stands 50.1 µM; under `O=C(N/N=C/c1c[nH]c2ccccc12)c1cccc(O)c1`, 130 µM; under `O=C(O)c1cccc(N2C(=O)CSC2=S)c1`, 62.1 µM.
Under `Cc1c(N=Cc2cc(Br)cc(Br)c2O)cccc1C(=O)O` stands 77.5 µM; under `Cc1ccc(N/C(=C\C(=O)c2ccccc2)C(=O)O)cc1`, 17.3 µM.
For `Oc1c(Cl)cc(CN2CCCCC2)c2cccnc12`, the IC50 was 15 µM.
`C[n+]1c2n(c3ccccc31)N=C(c1ccc(-c3ccccc3)cc1)CS2`: the IC50 was 38 µM.
`O=C(Nc1nnc(-c2ccco2)o1)c1cccc(Cl)c1`: the IC50 is 40 µM.
Turning to `Cc1cc(Cl)c(OCCCNCc2ccccc2)c(Br)c1`, the IC50 is 81.7 µM.
As for `CC(=O)Nc1ccc(S(=O)(=O)NNc2cccc(C)c2)cc1`, the half-inhibitory concentration (IC50) was 58.9 µM.
As to `O=C1c2ccccc2NC(c2ccc(-c3ccc(Br)cc3)o2)N1O` (stereo not drawn), the IC50 was 81.1 µM.
Under `N#Cc1c(-c2ccccc2)ccn(Cc2cccc(Cl)c2)c1=O` stands 21.2 µM.
For the compound `O=C(NC(=S)NNC(=O)c1ccccc1O)c1ccco1`, the 50% inhibitory concentration (IC50) was 23.8 µM.
As to `CN(C)CCCNc1cc(C(C)(C)C)nc2c(-c3ccc(Cl)cc3)cnn12`, the IC50 was 34.8 µM.
Under `CCCCCCC[N+](CC)(CC)CCCCc1ccc(Cl)cc1` stands 80 µM.
With `OCCCNc1c2ccccc2nc2ccccc12`, the IC50 was 136 µM.
As for `NC(=O)SCC(=O)Nc1cccc(Cl)c1`, the IC50 is 29.9 µM.
For `CCn1cc(C(=O)O)c(=O)c2cc(F)c(N3CCN(C(=S)NC(=O)c4cccc(F)c4)CC3)cc21`, the IC50 is 27.2 µM.
With `Cc1ccc(C(c2cc(Cl)c3cccnc3c2O)N2CCN(C)CC2)cc1` (stereo not drawn), the concentration for half-maximal inhibition (IC50) was 48.2 µM.
Under `CN(C)C1C(=O)C(C(N)=O)=C(O)C2(O)C(=O)C3=C(O)c4c(O)cccc4C(C)(O)C3C(O)C12` (stereo not drawn) stands 1.54 µM.

Source of the values: PubChem BioAssay AID1985 (Southern Research Specialized Biocontainment Screening …, 2009).
